Data from PubChem BioAssay AID248 (DTP/NCI, 2004).
Several values for one entry are separate records, joined by “and”; a condition that tells them apart may be missing. Equal values may be shown once. Inconclusive results and toxic doses are left out. Cut-off read from the data, not from the text of the source: active = T/C of 150% or more; inactive = T/C below 125%.

Tested on: L1210 leukemia ip in BDF1 mice, survival T/C
Assay: NCI In Vivo Anticancer Drug Screen. Data for tumor model L1210 Leukemia (intraperitoneal) in B6D2F1 (BDF1) mice
Conditions: endpoint: mean survival time, higher = longer survival
How it was run: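 Transplantable tumor model; survival measured in treated vs vehicle control mice. Value = treated/control.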

[1] = dose: 100.0 mg/kg/injection, schedule: Q01DX009 (ip), vehicle: saline with Tween-80
[2] = dose: 200.0 mg/kg/injection, schedule: Q01DX009 (ip), vehicle: saline with Tween-80
[3] = dose: 400.0 mg/kg/injection, schedule: Q01DX009 (ip), vehicle: saline with Tween-80
[4] = dose: 50.0 mg/kg/injection, schedule: Q01DX001 (ip), vehicle: Klucel (hydroxypropylcellulose) (HPC)
[5] = dose: 100.0 mg/kg/injection, schedule: Q01DX009 (ip), vehicle: Klucel (hydroxypropylcellulose) (HPC)
[6] = dose: 100.0 mg/kg/injection, schedule: Q04DX003 (ip), vehicle: Klucel (hydroxypropylcellulose) (HPC)
[7] = dose: 200.0 mg/kg/injection, schedule: Q01DX009 (ip), vehicle: Klucel (hydroxypropylcellulose) (HPC)
[8] = dose: 200.0 mg/kg/injection, schedule: Q04DX003 (ip), vehicle: Klucel (hydroxypropylcellulose) (HPC)
[9] = dose: 400.0 mg/kg/injection, schedule: Q01DX009 (ip), vehicle: Klucel (hydroxypropylcellulose) (HPC)
[10] = dose: 400.0 mg/kg/injection, schedule: Q04DX003 (ip), vehicle: Klucel (hydroxypropylcellulose) (HPC)
[11] = dose: 100.0 mg/kg/injection, schedule: Q04DX003 (ip), vehicle: saline with Tween-80
[12] = dose: 200.0 mg/kg/injection, schedule: Q04DX003 (ip), vehicle: saline with Tween-80
[13] = dose: 400.0 mg/kg/injection, schedule: Q04DX003 (ip), vehicle: saline with Tween-80

Measured: T/C

COC(=O)C/C=C/CC(=O)OC
inactive: [1] 95 % of control | [2] 90 % of control | [3] 88 % of control

COc1ccc(CC2c3cc(OC)c(OC)cc3CC[N+]2(C)C)cc1OC (centres undefined)
inactive: dose: 12.5 mg/kg/injection, schedule: Q01DX009 (ip), vehicle: saline sonified 103 % of control | dose: 25.0 mg/kg/injection, schedule: Q01DX009 (ip), vehicle: saline sonified 108 % of control | [4] 95 % of control | dose: 50.0 mg/kg/injection, schedule: Q01DX009 (ip), vehicle: saline sonified 102 % of control

CCc1ccc(C)[n+](N)c1
inactive: dose: 50.0 mg/kg/injection, schedule: Q01DX001 (ip), vehicle: saline 103 % of control | dose: 100.0 mg/kg/injection, schedule: Q01DX001 (ip), vehicle: saline 109 % of control

O=C1NC(O)C(O)N1 (centres undefined)
inactive: [5] 104 % of control | [6] 100 % of control | [7] 96 % of control | [8] 96 % of control | [9] 105 % of control | [10] 100 % of control

Cc1ccc(-n2c(=S)[nH]c3ccccc3c2=O)cc1C
inactive: [5] 90 % of control | [6] 96 % of control | [7] 90 % of control | [8] 93 % of control | [9] 92 % of control | [10] 93 % of control

COc1ccc(/C=N/NC(=O)CNC(=O)c2ccc(Cl)c(Cl)c2)cc1OC
inactive: dose: 50.0 mg/kg/injection, schedule: Q01DX009 (ip), vehicle: saline with Tween-80 91 % of control | [1] 91 % of control | [2] 102 % of control

N=C(CNC1CC2CCC1C2)SS(=O)(=O)O (centres undefined)
inactive: dose: 3.13 mg/kg/injection, schedule: Q01DX009 (ip), vehicle: Klucel (hydroxypropylcellulose) (HPC) 97 % of control | dose: 3.13 mg/kg/injection, schedule: Q04DX002 (ip), vehicle: Klucel (hydroxypropylcellulose) (HPC) 98 % of control | dose: 6.25 mg/kg/injection, schedule: Q01DX009 (ip), vehicle: Klucel (hydroxypropylcellulose) (HPC) 94 % of control | dose: 6.25 mg/kg/injection, schedule: Q04DX002 (ip), vehicle: Klucel (hydroxypropylcellulose) (HPC) 95 % of control | dose: 12.5 mg/kg/injection, schedule: Q01DX009 (ip), vehicle: Klucel (hydroxypropylcellulose) (HPC) 105 % of control | dose: 12.5 mg/kg/injection, schedule: Q04DX002 (ip), vehicle: Klucel (hydroxypropylcellulose) (HPC) 98 % of control and 103 % of control

Cc1ccc(Cl)c([N+](=O)[O-])c1N
inactive: [1] 92 % of control | [11] 106 % of control | [2] 95 % of control | [12] 104 % of control | [3] 108 % of control | [13] 104 % of control

O=C(CCCCCCCCCCBr)OCc1ccccc1
inactive: dose: 100.0 mg/kg/injection, schedule: Q01DX001 (ip), vehicle: saline sonified 103 % of control | dose: 200.0 mg/kg/injection, schedule: Q01DX001 (ip), vehicle: saline sonified 99 % of control | dose: 400.0 mg/kg/injection, schedule: Q01DX001 (ip), vehicle: saline sonified 105 % of control

Cc1cccc(NC(=O)OCCN(CCOC(=O)Nc2cccc(C)c2)Cc2ccccc2)c1
inactive: dose: 50.0 mg/kg/injection, schedule: Q01DX001 (ip), vehicle: carboxymethylcellulose (CMC) 90 % of control | dose: 100.0 mg/kg/injection, schedule: Q01DX001 (ip), vehicle: carboxymethylcellulose (CMC) 98 % of control | dose: 200.0 mg/kg/injection, schedule: Q01DX001 (ip), vehicle: carboxymethylcellulose (CMC) 104 % of control | dose: 400.0 mg/kg/injection, schedule: Q01DX001 (ip), vehicle: carboxymethylcellulose (CMC) 90 % of control

Nc1ncnc2nc(Cc3ccccc3)[nH]c12
inactive: dose: 100.0 mg/kg/injection, schedule: Q01DX001 (ip), vehicle: gum acacia 95 % of control | dose: 200.0 mg/kg/injection, schedule: Q01DX001 (ip), vehicle: gum acacia 109 % of control

Cc1ccc(S(=O)(=O)N(C)c2ccc(C(=O)O)c3ccccc23)cc1
inactive: [11] 105 % of control | [12] 97 % of control | [13] 100 % of control

COC(=O)c1cn2ccc(C(=O)c3ccccc3)cc2c1C(=O)OC
inactive: dose: 100.0 mg/kg/injection, schedule: Q04DX002 (ip), vehicle: Klucel (hydroxypropylcellulose) (HPC) 95 % of control | dose: 200.0 mg/kg/injection, schedule: Q04DX002 (ip), vehicle: Klucel (hydroxypropylcellulose) (HPC) 106 % of control | dose: 400.0 mg/kg/injection, schedule: Q04DX002 (ip), vehicle: Klucel (hydroxypropylcellulose) (HPC) 98 % of control

O=C(NC(=O)C(Cl)Cl)OC1c2ccccc2-c2ccccc21
inactive: [4] 95 % of control | dose: 100.0 mg/kg/injection, schedule: Q01DX001 (ip), vehicle: Klucel (hydroxypropylcellulose) (HPC) 100 % of control | [5] 90 % of control | [6] 96 % of control | dose: 200.0 mg/kg/injection, schedule: Q01DX001 (ip), vehicle: Klucel (hydroxypropylcellulose) (HPC) 94 % of control | [7] 93 % of control | [8] 96 % of control | dose: 400.0 mg/kg/injection, schedule: Q01DX001 (ip), vehicle: Klucel (hydroxypropylcellulose) (HPC) 92 % of control | [10] 95 % of control

CCCCCCCCCCCCNC(=O)c1ccc[n+](Cc2ccccc2)c1
inactive: dose: 5.0 mg/kg/injection, schedule: Q01DX009 (ip), vehicle: saline 102 % of control | dose: 5.0 mg/kg/injection, schedule: Q04DX003 (ip), vehicle: saline sonified 101 % of control | dose: 10.0 mg/kg/injection, schedule: Q01DX009 (ip), vehicle: saline 98 % of control | dose: 10.0 mg/kg/injection, schedule: Q04DX003 (ip), vehicle: saline sonified 106 % of control
